Results reported in patent US4335249A, “Herbicidal diphenyl ethers, sulfides, sulfoxides and sulfones” (Rohm and Haas Company, priority 1976, dated 1982).

Key:
Type in all cases: in vivo
[1] = system: cocklebur (Xanthium pensylvanicum); assay: Preemergence herbicidal activity, cocklebur; conditions: Xanthium strumarium, pre-emergence, 336 h; for pest or weed control at 2241.7 g/ha: 2 lb/A; for pest or weed control at 4483.4 g/ha: 4 lb/A
Procedure: (§1) Using the procedure described below, compounds of the invention are evaluated for control of several of the following plant species:
(§2) The following est procedure is employed. Seeds of selected crops and weeds are planted in soil in flats. For preemergence tests, the flats are treated with the test compound immediately after the planting. For postemergence tests, the seeds are allowed to germinate, and after two weeks the flats are treated with the test compound. The compound to be evaluated is dissolved in acetone, diluted with water, and sprayed over the flats using a carrier volume equivalent to 50 gallons per acre at the rate of application (pounds per acre, lb/A.) specified in the tables. About two weeks after the application of the test compound, the state of growth of the plants is observed and the phytotoxic effect of the compound is evaluated. Tables III and IV give the average percent control achieved by test compounds in terms of the percent of the plants which are killed by the compounds.

marigold (Tagetes spp.) [2] = assay: Preemergence herbicidal activity, marigold; conditions: pre-emergence, 336 h; for pest or weed control at 2241.7 g/ha: 2 lb/A; for pest or weed control at 4483.4 g/ha: 4 lb/A
Procedure: as §1, §2

[3] = system: morningglory (Ipomoca spp.); assay: Preemergence herbicidal activity, morningglory; conditions: Ipomoea, pre-emergence, 336 h; for pest or weed control at 2241.7 g/ha: 2 lb/A; for pest or weed control at 4483.4 g/ha: 4 lb/A
Procedure: as §1, §2

[4] = system: tomato (Lycopersicon esculentum); assay: Preemergence herbicidal activity, tomato; conditions: Solanum lycopersicum, pre-emergence, 336 h, Pre; for pest or weed control at 2241.7 g/ha: 2 lb/A; for pest or weed control at 4483.4 g/ha: 4 lb/A
Procedure: as §1, §2

[5] = system: velvetleaf (Abutilon theophrasti); assay: Preemergence herbicidal activity, velvetleaf; conditions: Abutilon theophrasti, pre-emergence, 336 h, Pre; for pest or weed control at 2241.7 g/ha: 2 lb/A; for pest or weed control at 4483.4 g/ha: 4 lb/A
Procedure: as §1, §2

[6] = system: barnyardgrass (Echinochloa crusgalli); assay: Preemergence herbicidal activity, barnyardgrass; conditions: Echinochloa crus-galli, pre-emergence, 336 h, Pre; for pest or weed control at 2241.7 g/ha: 2 lb/A; for pest or weed control at 4483.4 g/ha: 4 lb/A
Procedure: as §1
(§3) The following est procedure is employed. Seeds of selected crops and weeds are planted in soil in flats. For preemergence tests, the flats are treated with the test compound immediately after the planting. For postemergence tests, the seeds are allowed to germinate, and after two weeks the flats are treated with the test compound. The compound to be evaluated is dissolved in acetone, diluted with water, and sprayed over the flats using a carrier volume equivalent to 50 gallons per acre at the rate of application (pounds per acre, lb/A.) specified in the tables.

[7] = system: downybrome (Bromus tectorum); assay: Preemergence herbicidal activity, downybrome; conditions: Bromus tectorum, pre-emergence, 336 h, Pre; for pest or weed control at 2241.7 g/ha: 2 lb/A; for pest or weed control at 4483.4 g/ha: 4 lb/A
Procedure: as §1, §2

foxtail (Setaria spp.) [8] = assay: Preemergence herbicidal activity, foxtail; conditions: Setaria, pre-emergence, 336 h, Pre; for pest or weed control at 2241.7 g/ha: 2 lb/A; for pest or weed control at 4483.4 g/ha: 4 lb/A
Procedure: as §1, §2

[9] = system: yellow nutsedge (Cyperus esculentus); assay: Preemergence herbicidal activity, yellow nutsedge; conditions: Cyperus, pre-emergence, 336 h; for pest or weed control at 2241.7 g/ha: 2 lb/A; for pest or weed control at 4483.4 g/ha: 4 lb/A
Procedure: as §1, §2

wild oats (Avena fatua) [10] = assay: Preemergence herbicidal activity, wild oats; conditions: Avena fatua, pre-emergence, 336 h, Pre, read-out: % control, Wild oat; for pest or weed control at 2241.7 g/ha: 2 lb/A; for pest or weed control at 4483.4 g/ha: 4 lb/A
Procedure: as §1, §2

[11] = system: cocklebur (Xanthium pensylvanicum); assay: Postemergence herbicidal activity, cocklebur; conditions: Xanthium strumarium, post-emergence, 336 h; for pest or weed control at 2241.7 g/ha: 2 lb/A; for pest or weed control at 4483.4 g/ha: 4 lb/A
Procedure: as §1, §2

marigold (Tagetes spp.) [12] = assay: Postemergence herbicidal activity, marigold; conditions: post-emergence, 336 h; for pest or weed control at 2241.7 g/ha: 2 lb/A; for pest or weed control at 4483.4 g/ha: 4 lb/A
Procedure: as §1, §2

[13] = system: morningglory (Ipomoca spp.); assay: Postemergence herbicidal activity, morningglory; conditions: Ipomoea, post-emergence, 336 h; for pest or weed control at 2241.7 g/ha: 2 lb/A; for pest or weed control at 4483.4 g/ha: 4 lb/A
Procedure: as §1, §2

[14] = system: tomato (Lycopersicon esculentum); assay: Postemergence herbicidal activity, tomato; conditions: Solanum lycopersicum, post-emergence, 336 h, Post; for pest or weed control at 2241.7 g/ha: 2 lb/A; for pest or weed control at 4483.4 g/ha: 4 lb/A
Procedure: as §1, §2

[15] = system: velvetleaf (Abutilon theophrasti); assay: Postemergence herbicidal activity, velvetleaf; conditions: Abutilon theophrasti, post-emergence, 336 h; for pest or weed control at 2241.7 g/ha: 2 lb/A; for pest or weed control at 4483.4 g/ha: 4 lb/A
Procedure: as §1, §3

[16] = system: barnyardgrass (Echinochloa crusgalli); assay: Postemergence herbicidal activity, barnyardgrass; conditions: Echinochloa crus-galli, post-emergence, 336 h, Post; for pest or weed control at 2241.7 g/ha: 2 lb/A; for pest or weed control at 4483.4 g/ha: 4 lb/A
Procedure: as §1, §3

[17] = system: downybrome (Bromus tectorum); assay: Postemergence herbicidal activity, downybrome; conditions: Bromus tectorum, post-emergence, 336 h, Post; for pest or weed control at 2241.7 g/ha: 2 lb/A; for pest or weed control at 4483.4 g/ha: 4 lb/A
Procedure: as §1, §2

foxtail (Setaria spp.) [18] = assay: Postemergence herbicidal activity, foxtail; conditions: Setaria, post-emergence, 336 h, Post; for pest or weed control at 2241.7 g/ha: 2 lb/A; for pest or weed control at 4483.4 g/ha: 4 lb/A
Procedure: as §1, §2

[19] = system: yellow nutsedge (Cyperus esculentus); assay: Postemergence herbicidal activity, yellow nutsedge; conditions: Cyperus, post-emergence, 336 h; for pest or weed control at 2241.7 g/ha: 2 lb/A; for pest or weed control at 4483.4 g/ha: 4 lb/A
Procedure: as §1, §2

wild oats (Avena fatua) [20] = assay: Postemergence herbicidal activity, wild oats; conditions: Avena fatua, post-emergence, 336 h, Post, read-out: % control, Wild oat; for pest or weed control at 2241.7 g/ha: 2 lb/A; for pest or weed control at 4483.4 g/ha: 4 lb/A
Procedure: as §1, §2

| SMILES | pest or weed control at 2241.7 g/ha [1] | pest or weed control at 2241.7 g/ha (marigold (Tagetes spp.) [2]) | pest or weed control at 2241.7 g/ha [3] | pest or weed control at 2241.7 g/ha [4] | pest or weed control at 2241.7 g/ha [5] | pest or weed control at 2241.7 g/ha [6] | pest or weed control at 2241.7 g/ha [7] | pest or weed control at 2241.7 g/ha (foxtail (Setaria spp.) [8]) | pest or weed control at 2241.7 g/ha [9] | pest or weed control at 2241.7 g/ha (wild oats (Avena fatua) [10]) | pest or weed control at 2241.7 g/ha [11] | pest or weed control at 2241.7 g/ha (marigold (Tagetes spp.) [12]) | pest or weed control at 2241.7 g/ha [13] | pest or weed control at 2241.7 g/ha [14] | pest or weed control at 2241.7 g/ha [15] | pest or weed control at 2241.7 g/ha [16] | pest or weed control at 2241.7 g/ha [17] | pest or weed control at 2241.7 g/ha (foxtail (Setaria spp.) [18]) | pest or weed control at 2241.7 g/ha [19] | pest or weed control at 2241.7 g/ha (wild oats (Avena fatua) [20]) | further results |
| --- | --- | --- | --- | --- | --- | --- | --- | --- | --- | --- | --- | --- | --- | --- | --- | --- | --- | --- | --- | --- | --- |
| CCN(CC)C(=O)C(C)Oc1ccc(Oc2ccc(C(F)(F)F)cc2Cl)cc1 (centres unmarked) [Example 5] | 0% | 0% | 0% | 0% | 0% | 60% | 0% | 99% | 0% | 0% | 0% | 0% | 20% | 80% | 20% | 20% | 30% | 90% | 0% | 20% |  |
| CCOC(=O)C=CCOc1ccc(Oc2ccc(C(F)(F)F)cc2Cl)cc1 [Example 30] | 0% | 0% | 0% | 0% | 0% | 60% | 0% | 60% | 0% | 0% | 0% | 0% | 0% | 30% | 0% | 0% | 0% | 100% | 0% | 30% |  |
| CC(Oc1ccc(Oc2ccc(C(F)(F)F)cc2Cl)cc1)C(=O)OC(C)(C)C (centres unmarked) [Example 35] | 0% | 0% | 0% | 0% | 0% | 99% | 0% | 100% | 0% | 0% | 0% | 0% | 0% | 0% | 0% | 60% | 0% | 100% | 0% | 0% |  |
| CCOC(=O)C(C)Oc1ccc([S+]([O-])c2ccc(C(F)(F)F)cc2Cl)cc1 (centres unmarked) [Example 42] |  |  |  |  |  |  |  |  |  |  |  |  |  |  |  |  |  |  |  |  | pest or weed control at 4483.4 g/ha [1]: 0%; pest or weed control at 4483.4 g/ha (marigold (Tagetes spp.) [2]): 0%; pest or weed control at 4483.4 g/ha [3]: 0%; pest or weed control at 4483.4 g/ha [4]: 0%; pest or weed control at 4483.4 g/ha [5]: 40%; pest or weed control at 4483.4 g/ha [6]: 95%; pest or weed control at 4483.4 g/ha [7]: 40%; pest or weed control at 4483.4 g/ha (foxtail (Setaria spp.) [8]): 99%; pest or weed control at 4483.4 g/ha [9]: 0%; pest or weed control at 4483.4 g/ha (wild oats (Avena fatua) [10]): 20%; pest or weed control at 4483.4 g/ha [11]: 0%; pest or weed control at 4483.4 g/ha (marigold (Tagetes spp.) [12]): 0%; pest or weed control at 4483.4 g/ha [13]: 0%; pest or weed control at 4483.4 g/ha [14]: 0%; pest or weed control at 4483.4 g/ha [15]: 0%; pest or weed control at 4483.4 g/ha [16]: 0%; pest or weed control at 4483.4 g/ha [17]: 0%; pest or weed control at 4483.4 g/ha (foxtail (Setaria spp.) [18]): 0%; pest or weed control at 4483.4 g/ha [19]: 0%; pest or weed control at 4483.4 g/ha (wild oats (Avena fatua) [20]): 0% |
| CCOC(=O)C(C)Oc1ccc(Oc2ccc(C(F)(F)F)cc2Cl)cc1C (centres unmarked) [Example 10] | 0% | 0% | 0% | 0% | 0% | 0% | 0% | 0% | 0% | 0% | 40% | 0% | 80% | 30% | 40% | 0% | 0% | 0% | 0% | 0% |  |
| CCOC(=O)C(C)Oc1ccc([S+]([O-])c2ccccc2C(F)(F)F)cc1 (centres unmarked) [Example 49, Ethyl 2-[4-(2-trifluoromethylphenylsulfinyl)phenoxy]propionate] |  |  |  |  |  |  |  |  |  |  |  |  |  |  |  |  |  |  |  |  | pest or weed control at 4483.4 g/ha [1]: 0%; pest or weed control at 4483.4 g/ha (marigold (Tagetes spp.) [2]): 0%; pest or weed control at 4483.4 g/ha [3]: 0%; pest or weed control at 4483.4 g/ha [4]: 0%; pest or weed control at 4483.4 g/ha [5]: 0%; pest or weed control at 4483.4 g/ha [6]: 0%; pest or weed control at 4483.4 g/ha [7]: 0%; pest or weed control at 4483.4 g/ha (foxtail (Setaria spp.) [8]): 0%; pest or weed control at 4483.4 g/ha [9]: 0%; pest or weed control at 4483.4 g/ha (wild oats (Avena fatua) [10]): 0%; pest or weed control at 4483.4 g/ha [11]: 0%; pest or weed control at 4483.4 g/ha (marigold (Tagetes spp.) [12]): 0%; pest or weed control at 4483.4 g/ha [13]: 0%; pest or weed control at 4483.4 g/ha [14]: 20%; pest or weed control at 4483.4 g/ha [15]: 20%; pest or weed control at 4483.4 g/ha [16]: 20%; pest or weed control at 4483.4 g/ha [17]: 0%; pest or weed control at 4483.4 g/ha (foxtail (Setaria spp.) [18]): 20%; pest or weed control at 4483.4 g/ha [19]: 0%; pest or weed control at 4483.4 g/ha (wild oats (Avena fatua) [20]): 30% |
| COC(=O)C(C)Oc1ccc(Oc2ccc(C(F)(F)F)cc2Cl)cc1 (centres unmarked) [Example 4, Methyl 2-[4-(2-chloro-4-trifluoromethylphenoxy)phenoxy] propionate] | 0% | 0% | 0% | 0% | 20% | 100% | 0% | 100% | 0% | 40% | 100% | 30% | 20% | 60% | 80% | 100% | 99% | 100% | 0% | 100% |  |
